The nature of data set [1]: log P by HPLC on reversed-phase column (C18), EEC directive 79/831 Annex V.A8. Conditions: for chromatographic logP: reversed-phase HPLC column (C18). Format: physicochemical. The method, then:
a) The determination of the W by LC-MS in the acidic range is effected at pH 2.7, acetonitrile (contains 0.1% formic acid) and water as eluents; linear gradient from 10% acetonitrile to 95% acetonitrile, instrument: Agilent 1100 LC-System, Agilent MSD System, HTS PAL. The log P values reported in the tables and Preparation Examples above were determined in accordance with EEC directive 79/831 Annex V.A8 by HPLC (High Performance Liquid Chromatography) using a reversed-phase column (C18). Temperature 43° C. The calibration is effected with unbranched alkan-2-ones (having 3 to 16 carbon atoms), for which the log P values are known.

Data set [2] deals with larvae of the mustard beetle (Phaedon cochleariae). Nature of the data set: Phaedon cochleariae spray test (PHAECO). The class given is in vivo. The conditions noted are these: for efficacy / pest or weed control at 100 g/ha: 100 g/ha, spray, after 7 days; for pest or weed control at 100 g/ha / percent efficacy (larval mortality) at 20 g/ha: Phaedon cochleariae, 168 h; for pest or weed control at 100 g/ha: read-out: efficacy; for percent efficacy (larval mortality) at 20 g/ha: PHAECO, 20 g of ai/ha, 7 d, read-out: % Efficacy dat. The method, then:
Phaedon cochleariae—Spray Test (PHAECO)
To produce a suitable preparation of active compound, 1 part by weight of active compound is mixed with the stated amounts of solvent and emulsifier, and the concentrate is diluted with emulsifier-containing water to the desired concentration.
Discs of Chinese cabbage leaves (Brassica pekinensis) are sprayed with an active compound formulation of the desired concentration and, after drying, populated with larvae of the mustard beetle (Phaedon cochleariae).
After 7 days, the efficacy in % is determined. 100% means that all the beetle larvae have been killed; 0% means that no beetle larvae have been killed.
After the stated period of time, the effect in % is determined 100% means that all the beetle larvae have been killed; 0% means that no beetle larvae have been killed.

The mark [3] stands for this setting: HPLC, acidic range pH 2.7, 43° C.
[4] abbreviates: HPLC, acidic range pH 2.7, 43° C., read-out: log p.
The mark [5] stands for this setting: pH 2.7, final compounds of the synthesis examples, read-out: log P (HPLC-MS).

Read-outs that look alike come from different tables or passages of the source.

Regarding `CCn1c(C(=O)NC(c2cc(Cl)c(F)c(Cl)c2)C(F)(F)F)cc2cc(C(=O)NC3(C#N)CC3)c(C(F)(F)F)nc21` (centres unmarked) [Compound 77], in data set [1] (setting [3]), the log p came out at 4.36.
The same measure, in the same setting: the figure for `CCn1c(C(=O)NC(c2cc(Cl)c(F)c(Cl)c2)C(F)(F)F)cc2cc(C(=O)NC3CC3)c(C(F)(F)F)nc21` (centres unmarked) [Compound 86] is 4.42.
In data set [1] (setting [3]), `CCn1c(C(=O)NC(c2ccc(F)c(C(F)(F)F)c2)C(F)(F)F)cc2cc(C(=O)NCc3ccccn3)c(Cl)nc21` (centres unmarked) [Compound 55] returned a log p of 3.32. Moreover, the efficacy in data set [2] was 83%.
Regarding `CCn1c(C(=O)NC(c2cccc(C(F)(F)F)c2)C(F)(F)F)cc2cc(C(=O)NCC(=O)OC)c(Cl)nc21` (centres unmarked) [Compound 44], the log p in data set [1] (setting [3]) stood at 3.58.
Consider `CCn1c(C(=O)NC(c2ccc(Cl)c(Cl)c2)C(F)(F)F)cc2cc(C(=O)NC3CCC3)c(Cl)nc21` (centres unmarked) [Compound 54], for which the log p in data set [1] (setting [3]) came out at 4.47.
For the compound `CCn1c(C(=O)NC(c2ccc(Cl)c(C(F)(F)F)c2)C(F)(F)F)c(Br)c2cc(C(=O)NC3(C(N)=S)CC3)c(C)nc21` (centres unmarked) [Compound 98], the chromatographic logP in data set [1] (setting [4]) came to 3.97.
As to `CCn1c(C(=O)NC(c2cccc(C(F)(F)F)c2)C(F)(F)F)cc2cc(C(=O)NC)c(Cl)nc21` (centres unmarked) [Compound 51], the log p in data set [1] (setting [3]) was determined as 3.40. In addition, the efficacy in data set [2] is 100%.
In data set [1] (setting [3]), `CCn1c(C(=O)NC(c2cc(Cl)c(F)c(Cl)c2F)C(F)(F)F)cc2cc(C(=O)NC3(C(N)=S)CC3)c(C(F)(F)F)nc21` (centres unmarked) [Compound 82] returned a log p of 4.45.
On to `CCCNC(=O)c1cc2cc(C(=O)NC(c3cccc(C(F)(F)F)c3)C(F)(F)F)n(CC)c2nc1Cl` (centres unmarked) [Compound 34], for which the chromatographic logP in data set [1] (setting [4]) was 3.99. In data set [2], the pest or weed control at 100 g/ha stood at 100% and the percent efficacy (larval mortality) at 20 g/ha is 100%.
The compound `CCn1c(C(=O)NC(c2cc(Cl)c(F)c(Cl)c2)C(F)(F)F)cc2cc(C(=O)NC3CC3)c(Cl)nc21` (centres unmarked) [Compound 20] yielded a log p in data set [1] (setting [3]) of 4.23. The compound further displayed an efficacy in data set [2] of 100%.
With `CCn1c(C(=O)NC(c2ccc(F)c(C(F)(F)F)c2)C(F)(F)F)cc2nc(C(=O)NC3CC3)ccc21` (centres unmarked) [Compound 2, N^5-Cyclopropyl-1-ethyl-N^2-{2,2,2-trifluoro-1-[4-fluoro-3-(trifluoromethyl)phenyl]ethyl}-1H-pyrrolo[3,2-b]pyridine-2,5-dicarboxamide], the chromatographic logP in data set [1] (setting [5]) is 3.78.
Take `CCn1c(C(=O)NC(c2cccc(C(F)(F)F)c2)C(F)(F)F)cc2cc(C(=O)NCc3ncccn3)c(Cl)nc21` (centres unmarked) [Compound 47]: the log p in data set [1] (setting [3]) amounted to 3.39. In addition, in data set [2], the efficacy was found to be 100%.
The corresponding values for `CCn1c(C(=O)NC(c2cccc(C(F)(F)F)c2)C(F)(F)F)cc2cc(C(=O)NCC(F)F)c(Cl)nc21` (centres unmarked) [Compound 13] are 3.79 and 100%.
Turning to `CCCNC(=O)c1cc2cc(C(=O)NC(c3cccc(C(F)(F)F)c3)C(F)(F)F)n(CC)c2cc1Cl` (centres unmarked) [reference compound], the percent efficacy (larval mortality) at 20 g/ha in data set [2] is 67%.
With `CCn1c(C(=O)NC(c2cc(Cl)c(F)c(Cl)c2)C(F)(F)F)cc2cc(C(=O)NC(C)C)c(Cl)nc21` (centres unmarked) [Compound 21], in data set [1] (setting [3]), the log p amounted to 4.44.
Same read-out and setting: the result for `CCn1c(C(=O)NC(c2cc(Cl)c(F)c(Cl)c2F)C(F)(F)F)cc2cc(C(=O)NC(C)C)c(Cl)nc21` (centres unmarked) [Compound 19] reads 4.62.
For the compound `CCn1c(C(=O)NC(c2cccc(C(F)(F)F)c2)C(F)(F)F)cc2cc(C(=O)NC3CC3)cnc21` (centres unmarked) [Compound 3], the log p in data set [1] (setting [3]) was found to be 3.19. Moreover, the efficacy in data set [2] worked out at 100%.
In the case of `CCn1c(C(=O)NC(c2ccc(Cl)c(C(F)(F)F)c2)C(F)(F)F)cc2cc(C(=O)NC3(C#N)CC3)c(Cl)nc21` (centres unmarked) [Compound 83], the log p in data set [1] (setting [3]) was 4.02.
Still for that read-out and setting: the result for `C#CCn1c(C(=O)NC(c2cccc(C(F)(F)F)c2)C(F)(F)F)cc2cc(C(=O)NC3(C#N)CC3)c(C)nc21` (centres unmarked) [Compound 81] reads 3.34.
Turning to `C#CCNC(=O)c1cc2cc(C(=O)NC(c3cccc(C(F)(F)F)c3)C(F)(F)F)n(CC)c2nc1Cl` (centres unmarked) [Compound 45], the log p in data set [1] (setting [3]) was found to be 3.69. The same compound registered an efficacy in data set [2] of 100%.
For the compound `CCn1c(C(=O)NC(c2cccc(C(F)(F)F)c2)C(F)(F)F)cc2cc(CNC(C)=O)c(C)nc21` (centres unmarked) [Compound 94, 5-(Acetamidomethyl)-1-ethyl-6-methyl-N-{2,2,2-trifluoro-1-[3-(trifluoromethyl)phenyl]ethyl}-1H-pyrrolo[2,3-b]pyridine-2-carboxamide], the chromatographic logP in data set [1] (setting [5]) was found to be 3.16. For the same compound, the pest or weed control at 100 g/ha in data set [2] was determined as 100%.
For the compound `CCn1c(C(=O)NC(c2ccc(Cl)c(Cl)c2)C(F)(F)F)cc2cc(C(=O)NC(C)C)c(Cl)nc21` (centres unmarked) [Compound 56], in data set [1] (setting [3]), the log p came out at 4.29.
As for `CCn1c(C(=O)NC(c2cccc(C(F)(F)F)c2)C(F)(F)F)cc2cc(CNC(=O)C3CC3)c(C)nc21` (centres unmarked) [Compound 92], in data set [1] (setting [3]), the log p turned out to be 3.59.
In data set [1] (setting [3]), `CCn1c(C(=O)NC(c2ccc(F)c(Cl)c2)C(F)(F)F)cc2cc(C(=O)NC3CCC3)c(Cl)nc21` (centres unmarked) [Compound 49] had a log p of 4.11.
Regarding `CCn1c(C(=O)NC(c2cc(Cl)c(F)c(Cl)c2F)C(F)(F)F)cc2cc(C(=O)NC3CC3)c(C(F)(F)F)nc21` (centres unmarked) [Compound 87], the log p in data set [1] (setting [3]) came to 4.66.
The same measure, in the same setting: the result for `CCn1c(C(=O)NC(c2ccc(Cl)c(C(F)(F)F)c2)C(F)(F)F)cc2cc(C(=O)NC3(C#N)CC3)c(C)nc21` (centres unmarked) [Compound 90] reads 3.91; that for `C#CCn1c(C(=O)NC(c2cc(Cl)c(F)c(Cl)c2)C(F)(F)F)cc2cc(C(=O)NC3CC3)c(C(F)(F)F)nc21` (centres unmarked) [Compound 79], 4.04.
Turning to `CCn1c(C(=O)NC(c2cc(Cl)c(F)c(Cl)c2)C(F)(F)F)cc2cc(C(=O)NC3CCC3)c(Cl)nc21` (centres unmarked) [Compound 48], in data set [1] (setting [3]), the log p turned out to be 4.62.
Still for that read-out and setting: the figure for `CCn1c(C(=O)NC(c2ccc(Cl)c(C(F)(F)F)c2)C(F)(F)F)cc2cc(C(=O)NC3(C(N)=S)CC3)c(C)nc21` (centres unmarked) [Compound 89] is 3.72; for `CCn1c(C(=O)NC(c2cccc(C(F)(F)F)c2)C(F)(F)F)cc2cc(C(=O)NC(CF)CF)c(Cl)nc21` (centres unmarked) [Compound 35] it is 3.83; for `CCn1c(C(=O)NC(c2cc(Cl)c(F)c(Cl)c2)C(F)(F)F)cc2cc(C(=O)NC3(C(N)=S)CC3)c(C(F)(F)F)nc21` (centres unmarked) [Compound 78] it is 4.25.
Same read-out and setting: the result for `CCn1c(C(=O)NC(c2cccc(C(F)(F)F)c2)C(F)(F)F)cc2cc(C(=O)NC(C)CF)c(Cl)nc21` (centres unmarked) [Compound 36] reads 3.83.
Same read-out and setting: the figure for `CCn1c(C(=O)NC(c2ccc(Cl)c(C(F)(F)F)c2)C(F)(F)F)cc2cc(C(=O)NC3(C(N)=S)CC3)c(Cl)nc21` (centres unmarked) [Compound 84] is 3.90.
For `CCn1c(C(=O)NC(c2cccc(C(F)(F)F)c2)C(F)(F)F)cc2cc(C(=O)NC(C)C)c(Cl)cc21` (centres unmarked) [reference compound], the percent efficacy (larval mortality) at 20 g/ha in data set [2] amounted to 0%.
The compound `CCn1c(C(=O)NC(c2ccc(Cl)c(C(F)(F)F)c2)C(F)(F)F)cc2cc(C(=O)NC3CC3)c(Cl)nc21` (centres unmarked) [Compound 88] displayed a log p in data set [1] (setting [3]) of 4.06.
In data set [1] (setting [3]), `C#CCn1c(C(=O)NC(c2cc(Cl)c(F)c(Cl)c2F)C(F)(F)F)cc2cc(C(=O)NC3(C#N)CC3)c(Cl)nc21` (centres unmarked) [Compound 80] had a log p of 3.99.
On the same count and under the same terms, the result for `CCn1c(C(=O)NC(c2ccc(Cl)c(C(F)(F)F)c2)C(F)(F)F)cc2cc(C(=O)NC3CC3)c(C)nc21` (centres unmarked) [Compound 91] reads 3.90.

These data come from patent US9345247B2, “Azaindole carboxylic acid amides and azaindole thiocarboxylic acid amides for use as insecticides and acaricides” (BAYER CROPSCIENCE AG, priority 2012, dated 2016).
